This passage reports melting point and IC50 results from patent US7781613B2, “Substituted N-aminomethylene sulfonamides, production and use thereof as medicaments” (Sanofi-Aventis, priority 2005, dated 2010).

The target in series [1] is T1, hormone-sensitive lipase (HSL) (Rattus norvegicus, UniProt P15304).
T1 construct: Isolated rat fat cells are obtained from epididymal adipose tissue from untreated male rats; from tissue; host or cells: rat (Wistar) epididymal adipose tissue, isolated fat cells
T1 sequence (P15304 1-768 isoform P15304-2): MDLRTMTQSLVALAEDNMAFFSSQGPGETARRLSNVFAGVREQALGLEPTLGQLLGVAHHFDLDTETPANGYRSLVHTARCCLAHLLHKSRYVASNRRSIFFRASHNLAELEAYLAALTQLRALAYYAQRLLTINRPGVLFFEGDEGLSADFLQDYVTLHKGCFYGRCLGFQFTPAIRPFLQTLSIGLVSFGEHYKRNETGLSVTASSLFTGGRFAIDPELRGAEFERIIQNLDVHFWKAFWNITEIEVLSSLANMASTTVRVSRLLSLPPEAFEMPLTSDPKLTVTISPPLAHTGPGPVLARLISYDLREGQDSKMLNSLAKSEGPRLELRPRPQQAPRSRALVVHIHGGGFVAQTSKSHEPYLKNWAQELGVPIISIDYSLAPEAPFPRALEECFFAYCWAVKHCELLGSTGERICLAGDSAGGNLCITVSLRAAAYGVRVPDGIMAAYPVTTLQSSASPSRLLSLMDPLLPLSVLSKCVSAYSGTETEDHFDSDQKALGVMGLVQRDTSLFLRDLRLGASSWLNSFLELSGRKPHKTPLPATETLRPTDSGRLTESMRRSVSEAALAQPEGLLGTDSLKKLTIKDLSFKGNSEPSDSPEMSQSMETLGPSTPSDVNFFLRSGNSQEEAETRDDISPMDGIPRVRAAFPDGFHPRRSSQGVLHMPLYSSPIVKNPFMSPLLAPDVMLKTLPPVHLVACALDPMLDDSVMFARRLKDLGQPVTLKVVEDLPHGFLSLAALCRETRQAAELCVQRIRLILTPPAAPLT
The experiment in a line: HSL enzyme assay (NAG assay) with partially purified HSL. The format is biochemical. The note with it: inhibition of HSL enzymatic activity; partially purified HSL from rat fat cells; NAG substrate; 30° C., 60 min. Here is the method:
The effect of the compounds of the invention of the formula I is tested in the following enzyme assay system: […]
Preparation of the Partially Purified HSL:
Isolated rat fat cells are obtained from epididymal adipose tissue from untreated male rats (Wistar, 220-250 g) by collagenase treatment in accordance with published methods (e.g. S, Nilsson et al., Anal. Biochem. 158, 1986, 399-407; G. Fredrikson et al., J. Biol. Chem. 256, 1981, 6311-6320; H. Tornquist et al., J. Biol. Chem. 251, 1976, 813-819). The fat cells from 10 rats are washed three times by flotation with 50 ml of homogenization buffer ([…] Tris/HCl, pH 7.4, 0.25 M sucrose, 1 mM EDTA, 1 mM DTT, 10 μg/ml leupeptin, 10 μg/ml antipain, 20 μg/ml pepstatin) each time and finally taken up in 10 ml of homogenization buffer. The fat cells are homogenized in a Teflon-in-glass homogenizer (Braun-Melsungen) by 10 strokes at 1500 rpm and 15° C. The homogenate is centrifuged (Sorvall SM24 tubes, 5000 rpm, 10 min, 4° C.). The subnatant between the layer of fat at the top and the pellet is removed and the centrifugation is repeated. The subnatant resulting therefrom is centrifuged again (Sorvall SM24 tubes, 20 000 rpm, 45 min, 4° C.). […] After incubation at 4° C. for 60 min (shaking at intervals of 15 min), the mixture is centrifuged (Sorvall SM24 tubes, 3000 rpm, 10 min, 4° C.). The supernatant is adjusted to pH 5.2 by adding glacial acetic acid and is incubated at 4° C. for 30 min. The precipitates are collected by centrifugation (Sorvall SS34, 12 000 rpm, 10 min, 4° C.) and suspended in 2.5 ml of 20 mM Tris/HCl, pH 7.0, 1 mM EDTA, 65 mM NaCl, 13% sucrose, 1 mM DTT, 10 μg/ml leupeptin/pepstatin/antipain. The suspension is dialyzed against 25 mM Tris/HCl, pH 7.4, 50% glycerol, 1 mM DTT, 10 μg/ml leupeptin, pepstatin, antipain at 4° C. overnight and then loaded onto a hydroxiapatite column (0.1 g per 1 ml of suspension, equilibrated with 10 mM potassium phosphate, pH 7.0, 30% glycerol, 1 mM DTT). The column is washed with four volumes of equilibration buffer at a flow rate of 20 to 30 ml/h. The HSL is eluted with one volume of equilibration buffer containing 0.5 M potassium phosphate and then dialyzed (see above) and concentrated 5- to 10-fold by ultrafiltration (Amicon Diaflo PM 10 Filter) at 4° C. The partially purified HSL can be stored at −70° C. for 4 to 6 weeks.
Preparation of NAG (NBD Monoacyl Glyceride) Substrate:
6 mg of phosphatidylcholine and 6 mg of phosphatidylinositol are each dissolved in 1 ml of chloroform. 10 mg of NAG are dissolved in 1 ml of chloroform. Two parts of phosphatidylinositol solution (e.g. 83.5 μl) and one part of phosphatidylcholine solution (e.g. 41.5 μl) and 100 μl of NAG solution are pipetted together into plastic scintillation vessels (final concentration in the assay: 0.0375 mg of phospholipid/ml; 0.05 mg/NAG/ml). The chloroform (225 μl total volume) is completely removed by passing a stream of N2 over it. The dried substrate can be stored at 4° C. for up to 3 days. To prepare the phospholipid vesicles/micelles with intercalated NAG (on the day of the assay), the dried substrate is taken up in 20 ml of assay buffer (25 mM Tris/HCl, pH 7.4; 150 mM NaCl) and two ultrasound treatments carried out with an ultrasonic probe (Branson Sonifier Type II, standard microtip): 1st treatment setting 2, 2×1 min, in between 1 min on ice each time; 2nd treatment setting 4, 2×1 min, in between 1 min on ice each time. During this procedure, the color of the substrate solution changes from yellow (extinction maximum 481 nm) to red (extinction maximum 550 nm) owing to intercalation of NAG between the phospholipid molecules in the vesicles/micelles. Before use as substrate (within the next 2 h), the solution is incubated on ice for 15 min.
The assay is carried out in 1.5 ml Eppendorf vessels or 96-well plates at 30° C. for 60 min. […]

Some results are limits rather than exact numbers.

Take `CC1CC(NC(=O)c2ccc(Cl)c(S(=O)(=O)N=CN(C)C)c2)CC(C)(C)C1` (stereo not shown) [Example 10, 4-Chloro-3-(dimethylaminomethylenesulfamoyl)-N-(3,3,5-trimethylcyclohexyl)benzamide]: the melting point worked out at 180 °C.

As to `CN(C)C=NS(=O)(=O)c1cc(S(=O)(=O)NC2CCCCC2)c(N)cc1C(F)(F)F` [Example 48, 2-Amino-4-trifluoromethyl-5-dimethylaminomethylenesulfamoyl-N-cyclohexyl-benzenesulfonamide], the melting point is > 185 °C (dec.). Half-maximal inhibition in series [1] (IC50) was put at 700 nM.

As to `C=CCN(C1CCCCC1)S(=O)(=O)c1cc(S(=O)(=O)N=CN(C)C)c(Cl)cc1N` [Example 33, 2-Amino-4-chloro-5-dimethylaminomethylenesulfamoyl-N-cyclohexyl-N-allyl-benzenesulfonamide], the melting point worked out at 90 °C. The compound also returned an IC50 in series [1] of 200 nM.

Compound `Cc1cc(C)cc(OCc2ccc(Cl)c(S(=O)(=O)N=CN(C)C)c2)c1` [Example 19, 6-Chloro-N-dimethylaminomethylene-3-[(3,5-dimethylphenoxy)methyl]benzenesulfonamide] showed a melting point of 137 °C. In addition, in series [1], the IC50 worked out at 400 nM.

`CC1CC(NS(=O)(=O)c2ccc(Cl)c(S(=O)(=O)N=CN(C)C)c2)CC(C)(C)C1` (stereo not shown) [Example 23, 6-Chloro-N-dimethylaminomethylene-3-(3,3,5-trimethylcyclohexylaminosulfonyl]benzenesulfonamide] returned an IC50 in series [1] of 150 nM.

`CN(C)C=NS(=O)(=O)c1cc(C(=O)NC2CC(C)(C)NC(C)(C)C2)ccc1Cl` [Example 11, 4-Chloro-3-(dimethylaminomethylenesulfamoyl)-N-(2,2,6,6-tetramethylpiperidin-4-yl)-benzamide] yielded a melting point of 192 °C.

In the case of `CC1CC(NS(=O)(=O)c2cc(S(=O)(=O)N=CN(C)C)c(Cl)cc2N)CC(C)(C)C1` (stereo not shown) [Example 32], the melting point was 100 °C. The same compound gave an IC50 in series [1] of 1 nM.

Regarding `CC1CC(NS(=O)(=O)c2cc(S(=O)(=O)N=CN(C)C)c(C(F)(F)F)cc2N)CC(C)(C)C1` (stereo not shown) [Example 26, 2-Amino-4-trifluoromethyl-5-dimethylaminomethylenesulfamoyl-N-(3,3,5-trimethyl-cyclohexyl)benzenesulfonamide], the melting point is > 165 °C (dec.).

In series [1], `CCCCN(CCCC)S(=O)(=O)c1cc(S(=O)(=O)N=CN(C)C)c(Cl)cc1N` [Example 28, 2-Amino-4-chloro-5-dimethylaminomethylenesulfamoyl-N-dibutylbenzenesulfonamide] showed an IC50 of 30 nM.

The compound `COc1ccc(S(=O)(=O)N=CN(C)C)cc1CN1CC(C)CC(C)C1` (stereo not shown) [Example 8, N-Dimethylaminomethylene-4-methoxy-3-[(3,5-dimethylpiperidino)methyl]benzenesulfonamide] displayed a melting point of 89 °C.

`CC(C)CN(CC(C)C)S(=O)(=O)c1cc(S(=O)(=O)N=CN(C)C)c(Cl)cc1N` [Example 29, 2-Amino-4-chloro-5-dimethylaminomethylenesulfamoyl-N-diisobutylbenzenesulfonamide] showed a melting point of 126 °C. This compound registered an IC50 in series [1] of 700 nM.

Compound `CN(C)C=NS(=O)(=O)c1cc(C(=O)NCc2ccccc2Cl)ccc1Cl` [Example 16, 4-Chloro-3-(dimethylaminomethylenesulfamoyl)-N-(2-chlorophenylmethyl)benzamide] gave a melting point of 167 °C.

For the compound `Cc1cc(C)cc(NC(=O)c2ccc(Cl)c(S(=O)(=O)N=CN(C)C)c2)c1` [Example 12, 4-Chloro-3-(dimethylaminomethylenesulfamoyl)-N-(3,5-dimethylphenyl)benzamide], the melting point is 216 °C.

With `CC(C)N(C1CCCCC1)S(=O)(=O)c1cc(S(=O)(=O)N=CN(C)C)c(Cl)cc1N` [Example 34, 2-Amino-4-chloro-5-dimethylaminomethylenesulfamoyl-N-cyclohexyl-N-isopropyl-benzenesulfonamide], the melting point was 122 °C (dec.).

`CCCCCCCCNS(=O)(=O)c1cc(S(=O)(=O)N=CN(C)C)c(Cl)cc1N` [Example 38, 2-Amino-4-chloro-5-dimethylaminomethylenesulfamoyl-N-octylbenzenesulfonamide] returned a melting point of 110 °C.

In the case of `CN(C)C=NS(=O)(=O)c1cc(S(=O)(=O)N2CCCC(C)(C)C2)ccc1Cl` [Example 24, 6-Chloro-N-dimethylaminomethylene-3-(3,3-dimethylpiperidinosulfonyl]-benzenesulfonamide], the melting point was 123 °C.

`CC1CC(N(Cc2ccc(Cl)c(S(=O)(=O)N=CN(C)C)c2)S(C)(=O)=O)CC(C)(C)C1` (stereo not shown) [Example 21, 6-Chloro-N-dimethylaminomethylene-3-[(N-(3,3,5-trimethylcyclohexyl)-N-methylsulfonylamino)methyl]benzenesulfonamide] showed an IC50 in series [1] of 500 nM.
